Columns and labels:
TS gene = TS gene expression in collected tumor cells, quantitative RT-PCR (Example 9); assay type: in vivo, human; conditions: tumor cells collected 21 days after implantation; compared with control; GAPDH internal standard
Method: Mice of the groups subjected to the treatment in the same manner as in Example 8 were subjected to evaluation via IVIS 21 days after the implantation of the MSTO-211H-Luc cells, mice were sacrificed, tumor cells were collected from the thoracic cavity, and the inhibition of TS gene expression in the collected tumor cells was evaluated via quantitative RT-PCR.
RNA was extracted from tumor cells using the RNaqueous-micro kit (Ambion, Austin, Tex., U.S.A.) in accordance with the method recommended by the manufacturer. Reverse transcription of RNA into cDNA was carried out with the addition of Oligo (dT)20, dNTP, RNase inhibitor, and ReverTra Ace (Toyobo, Osaka, Japan) to RNA. Real-time PCR was carried out using the StepOnePlus real-time PCR system (Applied Biosystems, CA, U.S.A.), the reversely-transcribed cDNA as the template, and FastStart TaqMan Probe Master (ROX) and Universal ProbeLibrary (Roche Diagnostics GmbH, Manheim, Germany) as reagents, in accordance with the method recommended by the manufacturer. GAPDH was used as the internal standard.

MSTO-211H-Luc cells [1] = assay: Tumor growth inhibition by intrathoracic TS-shRNA lipoplex in orthotopic mouse models of malignant pleural mesothelioma (Example 8); assay type: in vivo; conditions: compared with control; IVIS 21 days after implantation; lipoplex 20 μg shRNA intrathoracic x6; PMX 25 mg/kg i.p. x10
Method: Orthotopic implantation mouse models of malignant pleural mesothelioma using the MSTO-211H-Luc cells were prepared by the method described in Example 3, and mice in which implanted cells had been sufficiently fixed 7 days after implantation were subjected to in vivo experiment.
The TS-shRNA lipoplex or NS-shRNA lipoplex was directly administered into the thoracic cavity of a mouse carrying MSTO-211H-Luc cells every other day from 7 days to 17 days after the tumor implantation, and administration was carried out 6 times in total. A dose was 20 μg of shRNA/100 μl. […]
As described in Example 5, carcinostatic activity (i.e., cell growth inhibitory activity) was evaluated by implanting MSTO-211H-Luc cells, administering 100 μl of a D-luciferin potassium salt solution (7.5 mg/ml) intraperitoneally under anesthesia with isoflurane 21 days after implantation, and evaluating the bioluminescence levels depending on activity of the MSTO-211H-Luc cells that had grown in the thoracic cavity using IVIS (Xenogen, Alameda, Calif., U.S.A.).

MSTO-211H-Luc cells [2] = assay: Tumor growth inhibition by intrathoracic TS-lipoplex and TS-preplex in orthotopic models (Example 11); assay type: in vivo, mouse; conditions: IVIS 18 days after implantation; 20 μg shRNA intrathoracic x5; PMX 25 mg/kg i.p. x10
Method: Orthotopic implantation models of malignant pleural mesothelioma using the MSTO-211H-Luc cells were prepared by the method described in Example 4, and the mice 4 days after implantation were subjected to the in vivo experiment.
The TS-lipoplex or TS-preplex was administered directly into the thoracic cavity 4, 7, 10, 13, and 16 days after the tumor implantation, so that 20 μg (50 μl) of shRNA would be administered.
When an existing chemotherapeutic agent (Alimta; pemetrexed sodium hydrate (PMX), Eli Lilly) was used in combination, a dose of 25 mg/kg was intraperitoneally administered every day from 4 days to 8 days after the tumor implantation, the same amount of the agent was intraperitoneally administered after an interval of 2 days every day from 11 days to 15 days after the tumor implantation, and administration was carried out 10 times in total.
Two days after the final administration of the TS-lipoplex or TS-preplex (i.e., 18 days after the tumor implantation), 100 μl of a D-luciferin potassium salt solution (7.5 mg/ml) was administered intraperitoneally under anesthesia with isoflurane, and the bioluminescence levels depending on luciferase activity in the MSTO-211H-Luc cells that had grown in the thoracic cavity were evaluated using IVIS (Xenogen, Alameda, Calif., U.S.A.).

[3] = tested on: human malignant pleural mesothelioma cells (MSTO-211H); assay: MTT assay, cell growth after shRNA transfection with or without PMX; assay type: cell-based; conditions: shRNA 5 or 10 nM with Lf RNAi MAX; in the presence of PMX 0.01 μg/ml; 0-96 hours
Method: This experiment was carried out on a 96-well plate scale. Transfection was carried out using Lipofectamine® RNAi MAX (hereafter referred to as “Lf RNAi MAX”), which is a cationic liposome, in accordance with the manufacturer's instructions.
shRNA (300 pmol of TS-shRNA or NS-shRNA) and 15 μl of Lf RNAi MAX were separately diluted with OptiMEM to prepare solutions (500 n1 each), the resulting solutions were mixed with each other, and the mixture was allowed to stand at room temperature for 10 to 20 minutes to form a complex (i.e., a lipoplex). A suspension of human malignant pleural mesothelioma cells (MSTO-211H) (2,000 cells/100 n1) was added to wells, 50 μl of lipoplex was added thereto 24 hours thereafter, and the final total volume was adjusted to 150 μl (the final shRNA concentration in the wells was adjusted to 5 nM or 10 nM). The medium was removed 24 hours after the initiation of transfection, and 200 μl of a fresh medium containing or not containing an existing cancer chemotherapeutic agent (“Alimta,” pemetrexed sodium hydrate, PMX, Eli Lilly) at 0.01 μg/ml was added thereto. The medium was removed 0, 24, 48, 72, and 96 hours after the addition of the fresh medium. […]
After the completion of incubation, acidic isopropanol (150 μl) was added to each well. […] Absorbance was determined at a wavelength of 570 nm using a plate reader. […]

Row | Compound | TS gene inhibitory effects (TS mRNA) (TS gene) | tumor growth inhibitory effects (MSTO-211H-Luc cells [1]) | tumor growth inhibitory effects (MSTO-211H-Luc cells [2]) | growth of MSTO-211H cells (cell growth rate, MTT) [3]
1 | Nc1nc2[nH]cc(CCc3ccc(C(=O)N[C@@H](CCC(=O)O)C(=O)O)cc3)c2c(=O)[nH]1 [PMX, pemetrexed sodium hydrate] | about 25% | about 50% | insignificant | –
2 | TS-shRNA: TS-targeting shRNA, SEQ ID NO: 8 (GUAACACCAUCGAUCAUGAUAGUGCUCCUGGUUGUCAUGAUCGAUGGUGUUACUU; siRNA; shRNA hairpin, further chemistry not given here) | – | – | – | inhibited the growth of MSTO-211H cells to a significant extent
